The text below walks through data of patent publication US9616033B2, “Selective metabolic approach to increasing oral bioavailability of phenylephrine and other phenolic bioactivities” (VIRGINIA COMMONWEALTH UNIVERSITY, priority 2011, dated 2017).

The subject of data set [1] is human LS180 intestinal cells. The data set can be described thus: Inhibition of phenylephrine (PE) metabolism (PE disappearance) in LS180 cells. Type of data set: cell-based. The settings on record: for activity at 100 µM: Homo sapiens; for effect on PE disappearance / PE metabolism (in words): inhibitor 100 μM. As for the experimental part:
The inhibitors which can be used in the practice of the invention are wide ranging. […] The LS180 model provides an inexpensive method to imitate the human intestine, with regards to PE metabolism. […] For the LS180 experiments, LS180 cells are seeded at the concentration of 1.9×10^5 cells/ml in 12-well plate. […] After incubation, medium is removed and stored at −80° C. until analysis. The metabolic reactions are quenched by placing 12-well plate on ice and quickly rinsing each well. The cell extraction of metabolites is carried out with 1 ml 2% acetic acid solution in methanol. Cells are scraped and collected in centrifuge tubes. The suspension is mixed for 2-3 min and centrifuged at 18,000 rcf for 5 min. Supernatants (800 μl) are collected. After scraping, each well is washed twice as above. The washing solution is collected with the supernatant and dried under reduced pressure. The residue is re-suspended in 35 μl water and analyzed by HPLC. […] The data are processed with one-way ANOVA followed by Dunnett's post test; * indicates p<0.05.
Phenolic compounds were selected from FDA's “GRAS” list, approved food additives, or dietary supplements. LS180 cells were used as a model to test the effect of these phenolic compounds on the pre-systemic sulfation of PE. The cells were incubated in 0.5 ml medium with PE (50 μM)±inhibitor (100 μM) overnight. Extracellular buffer was collected and cells were extracted with methanol. PE was determined by reversed-phase HPLC with fluorescence detection. The formation of PE-sulfate was analyzed by LC-MS/MS. Results (n=3 per group) were analyzed by one-way ANOVA with Dunnett's post-test (p<0.05; Prism 5).

Data set [2] relates to LS180 cells. The data set can be described thus: Inhibition of resveratrol metabolism (disappearance) in LS180 cells. The class given is cell-based, human. The following applies: for activity at 100 µM: Homo sapiens, read-out: Extent of RES Disappearance (as % of control); for inhibition of resveratrol metabolism (in words): 4 hours.
For data set [3] the following is noted: cited from earlier work.
A short description of data set [4]: Biopharmaceutical Classification System (BCS) classification. The settings on record: high permeability, high aqueous solubility. From the text: Interpreting the data published by Hengstmann, the mass balance of total radioactivity excreted into urine following an oral dose was 92% of what was recovered following an intravenous dose, so that phenylephrine would therefore be considered a “high permeability” compound. (Hengstmann and Goronzy, 1982; Amidon et al., 1995) Combining this with its high aqueous solubility, phenylephrine would be classified as a Biopharmaceutical Classification System (BCS) class 1 compound. […] (Amidon et al., 1995; Wu and Benet, 2005) Therefore, to improve the oral bioavailability of PE, a metabolism-targeted approach would be most useful.

For data set [5], the system named is LS180 cells. The data set can be described thus: Inhibition of 2-methoxyestradiol metabolism (disappearance) in LS180 cells. Type of data set: cell-based, human. The following applies: for activity at 100 µM: Homo sapiens, LS180, 1 h.
For data set [6] the following is noted: Fenaroli, 2010; cited from earlier work.
Setting [7] is: PE 50 μM, inhibitors total 100 μM (ascorbic acid 1 mM), LS180 cells, incubation 17 hr, read-out: Extent of PE Disappearance (as % of control).
Where [8] appears, read: resveratrol 25 μM, inhibitor 100 μM, LS180 cells, incubation 4 hr.
Where [9] appears, read: resveratrol 25 μM, inhibitor 100 μM, LS180 cells.
Setting [10] is: PE 50 μM ± inhibitor 100 μM, LS180 cells, overnight, n=3, control=503±127 pmol/hr, read-out: extent of disappearance of PE (mean±SD, as % of control).
The mark [11] stands for this setting: PE 50 μM, inhibitors total 100 μM, LS180 cells, incubation 17.5 hr, read-out: Extent of PE Disappearance (as % of control).
The mark [12] stands for this setting: 2-ME 10 μM, inhibitor 100 μM, incubation time 1 hr (table).
Setting [13] is: 2-ME 10 μM, inhibitor 100 μM, incubation time 1 hr (table), read-out: Extent of 2-ME Disappearance (as % of control).
The mark [14] stands for this setting: PE 50 μM, inhibitors total 100 μM (ascorbic acid 1 mM), LS180 cells, incubation 14 hr, read-out: Extent of PE Disappearance (as % of control).
The mark [15] stands for this setting: PE 50 μM, LS180 cells, overnight.
[16] abbreviates: PE 50 μM, inhibitors total 100 μM, LS180 cells, incubation 19 hr, read-out: Extent of PE Disappearance (as % of control).

Molecules are shown by their SMILES. “Also recorded” adds a separate entry of the source. Like-named read-outs stand apart in the source and are kept apart here.

As for `COC(=O)c1ccc(O)cc1` [methylparaben], the activity at 100 µM worked out at 75.9% in data set [1] (setting [7]) and 0.4% in the data set on LS180 cells [2] (setting [8]). Besides, in the data set on LS180 cells [2] (setting [9]), the “inhibition of resveratrol metabolism (in words)” value is “greatest extent of inhibition”.

In the case of `Oc1ccc(C=Cc2cc(O)cc(O)c2)cc1` [resveratrol], the activity at 100 µM in data set [1] (setting [10]) worked out at 14 ± 48%; in data set [1] (setting [11]), 14.2%.

For `CNC[C@H](O)c1cccc(O)c1` [phenylephrine], the “total radioactivity excreted into urine following an oral dose, relative to intravenous dose” value in data set [3] (mass balance, oral vs intravenous, Hengstmann data) is reported as 92%. Moreover, the oral bioavailability in data set [3] (oral) is listed as under 38%. Further, in data set [4], the “Biopharmaceutical Classification System (BCS) class” value was “class 1”.

Take `O=C(O)C=Cc1ccccc1` [cinnamic acid]: in the data set on LS180 cells [2] (setting [8]), the activity at 100 µM stood at 16.3%. For the same compound, the “inhibition of resveratrol metabolism (in words)” value in the data set with LS180 cells [2] (setting [9]) is reported as “significant inhibition”.

`CCCOC(=O)c1cc(O)c(O)c(O)c1` [propyl gallate]: in the data set with LS180 cells [5] (2-ME 10 μM, inhibitor 100 μM), the “inhibition of 2ME metabolism (in words)” value is reported as “Significant inhibition”. The “Extent of 2-ME Disappearance (as % of control)” value (from here on “Extent … (as % of control)”) in the data set on LS180 cells [5] (setting [12]) is given as 50.4%. Besides, the results for the activity at 100 µM (with LS180 cells [5] (setting [13]); in data set [1] (setting [14]); in the data set on LS180 cells [2] (setting [8])) were 42.8%, 114% and 51.2%, respectively. Besides, the “effect on PE disappearance / PE metabolism (in words)” value in data set [1] (setting [15]) was “no significant effect on PE disappearance”. Also, the “inhibition of resveratrol metabolism (in words)” value in the data set with LS180 cells [2] (setting [9]) is “significant inhibition”.

Take `COc1cc(/C=C/C(=O)O)cc(OC)c1O` [sinapic acid]: the activity at 100 µM in the data set on LS180 cells [5] (setting [13]) amounted to 88.1%; in the data set on LS180 cells [2] (setting [8]), 86.1%.

As to `C=CCc1ccc(O)c(OC)c1` [eugenol], the “inhibition of 2ME metabolism (in words)” value with LS180 cells [5] (2-ME 10 μM, inhibitor 100 μM) is on record as “Significant inhibition”. The “Extent … (as % of control)” value in the data set on LS180 cells [5] (setting [12]) is 33.9%. Further, the activity at 100 µM came out at 21.2% with LS180 cells [5] (read-out: Extent of 2-ME Disappearance (as % of control), 2-ME 10 μM, inhibitor 100 μM, incubation time 1 hr (table)); 133% in data set [1] (LS180, 17.5 h, read-out: Extent of PE Disappearance (as % of control)); 38.3% in the data set on LS180 cells [2] (LS180, 4 h). Further, the “effect on PE disappearance / PE metabolism (in words)” value in data set [1] (setting [15]) is listed as “failed to inhibit PE metabolism alone; also recorded: no significant effect on PE disappearance”. Moreover, the “inhibition of resveratrol metabolism (in words)” value with LS180 cells [2] (setting [9]) is listed as “significant inhibition”.

For the compound `O=C(/C=C/C=C/c1ccc2c(c1)OCO2)N1CCCCC1` [piperine], the activity at 100 µM with LS180 cells [2] (setting [8]) stood at 26.4%.

Turning to `CC=Cc1ccc(O)c(OC)c1` [isoeugenol], the figures for the activity at 100 µM in data set [1] (setting [10]) and in data set [1] (setting [16]) were 74 ± 8% and 73.9%, respectively.

Turning to `O=c1c(O)c(-c2ccc(O)c(O)c2)oc2cc(O)cc(O)c12` [quercetin], the activity at 100 µM in data set [1] (setting [11]) turned out to be 48.7%.

On to `O=C(O)/C=C/c1ccc(O)c(O)c1` [caffeic acid], for which the activity at 100 µM with LS180 cells [5] (setting [13]) came to 93.3%; in the data set on LS180 cells [2] (setting [8]), 91.1%.

On to `O=C(O)c1cc(O)c(O)c(O)c1` [gallic acid], for which the activity at 100 µM in the data set on LS180 cells [5] (setting [13]) was found to be 102%.

`COc1cc(/C=C/C(=O)O)ccc1O` [ferulic acid]: the activity at 100 µM with LS180 cells [5] (setting [13]) amounted to 102%; in the data set on LS180 cells [2] (setting [8]), 100%.

In the case of `CCCOC(=O)c1ccc(O)cc1` [propylparaben], the “inhibition of 2ME metabolism (in words)” value in the data set with LS180 cells [5] (2-ME 10 μM, inhibitor 100 μM) was “Significant inhibition”. Also, in the data set with LS180 cells [5] (setting [12]), the “Extent … (as % of control)” value turned out to be 57.7%. The activity at 100 µM was 51.7% in the data set on LS180 cells [5] (setting [13]), 53.8% in data set [1] (setting [14]) and 57.8% in the data set on LS180 cells [2] (setting [8]). Besides, the “inhibition of resveratrol metabolism (in words)” value in the data set with LS180 cells [2] (setting [9]) is listed as “significant inhibition”.

Regarding `COc1cc(/C=C/c2ccc(O)cc2)cc(OC)c1` [pterostilbene], the values for the activity at 100 µM in data set [1] (setting [10]) and in data set [1] (setting [16]) were 71 ± 7% and 70.6%, respectively.

In the case of `CCOc1cc(C=O)ccc1O` [ethylvanillin], the figures for the activity at 100 µM (in data set [1] (setting [7]); in the data set on LS180 cells [2] (setting [8])) were 76.5% and 8.1%, respectively. For the same compound, the “inhibition of resveratrol metabolism (in words)” value in the data set on LS180 cells [2] (setting [9]) was “greatest extent of inhibition”.

Turning to `COc1cc(/C=C/C(=O)CC(=O)/C=C/c2ccc(O)c(OC)c2)ccc1O` [curcumin], the activity at 100 µM in data set [1] (setting [10]) was found to be 24 ± 24%; in data set [1] (setting [7]), 24.5%.

Consider `COc1cc(C(=O)O)ccc1O` [vanillic acid], for which the figures for the activity at 100 µM in the data set on LS180 cells [5] (setting [13]) and with LS180 cells [2] (setting [8]) were 99.1% and 103%, respectively.

With `COc1cc(C=O)ccc1O` [vanillin], in the data set with LS180 cells [5] (2-ME 10 μM, inhibitor 100 μM), the “inhibition of 2ME metabolism (in words)” value is recorded as “Significant inhibition”. Further, in the data set on LS180 cells [5] (setting [12]), the “Extent … (as % of control)” value was 39.4%. Also, the activity at 100 µM in the data set on LS180 cells [5] (setting [13]) was found to be 51.2%; in data set [1] (setting [14]), 90.2%; with LS180 cells [2] (setting [8]), 44.8%. Moreover, the “effect on PE disappearance / PE metabolism (in words)” value in data set [1] (setting [15]) is on record as “failed to inhibit PE metabolism alone; also recorded: no significant effect on PE disappearance”. Also, the acceptable daily intake in data set [6] was 10 mg/kg/day. In the data set on LS180 cells [2] (setting [9]), the “inhibition of resveratrol metabolism (in words)” value is given as “significant inhibition”.

With `O=CC=Cc1ccccc1` [cinnamaldehyde], the “Extent … (as % of control)” value in the data set with LS180 cells [5] (setting [12]) is reported as 93.9%. For the same compound, the activity at 100 µM with LS180 cells [5] (setting [13]) turned out to be 87.6%.

Consider `COc1cc(CCC(C)=O)ccc1O` [zingerone], for which the activity at 100 µM was 52 ± 25% in data set [1] (setting [10]), 52.4% in data set [1] (setting [7]) and 83.7% in the data set on LS180 cells [2] (setting [8]).

For `C[C@@H]1O[C@@H](O[C@H]2[C@H](Oc3cc(O)c4c(c3)O[C@H](c3ccc(O)cc3)CC4=O)O[C@H](CO)[C@@H](O)[C@@H]2O)[C@H](O)[C@H](O)[C@H]1O` [naringin], the activity at 100 µM in data set [1] (setting [11]) was determined as 75.7%.
